Measured values taken from US20140106387A1, “METHOD FOR CONTROLLING NAD(P)/NAD(P)H RATIO BY OXIDOREDUCTASE” (MD BIOALPHA CO., LTD., priority 2006, published 2014).

What was measured:
[1] = system: NQO1; assay: NAD(P)H recycling assay (decrease of NAD(P)H by NQO1-activating candidate compounds); assay type: biochemical; details: for Residual amount of NAD(P)H(%): relative amount of NAD(P)H, amount in the absence of the NQO1 activator taken to be 100; for decrease of NAD(P)H and consequent body weight reduction: summary of Table 1 in words
Experimental: (10) NAD(P)H Recycling Assay
An NADH recycling assay was carried out using the above-extracted S9 supernatant or human recombinant NQO1 (hrNQO1). 20 μg of the S9 supernatant or 0.5 unit of hrNQO1 in conjunction with 200 μM NAD(P)H were added to a 25 mM Tris/HCl (pH 7.4) solution containing 0.2 mg/mL bovine serum albumin. The enzymatic reaction was initiated with addition of a […] compound and absorbance changes were monitored and recorded at 340 nm for 10 min.
(§1) For a variety of NQO1-activating candidate compounds as listed in Table 1 below, a decrease of NAD(P)H was measured based on the aforesaid experimental method (disclosed in Section 10 hereinbefore: NADH recycling assay). In addition, according to the experimental method given in Example 23, the body weight of ob/ob mice after four weeks was measured.
(§2) In this connection, the decreasing degree of NAD(P)H was expressed as a relative amount of NAD(P)H measured upon administration of the NQO1-activating candidate compound, by taking the amount of NAD(P)H in the absence of the NQO1 activator NAD(P)H to be 100. In addition, the degree of the body weight loss was expressed as a percentage of the body weight of ob/ob mice with administration of the NQO1-activating candidate compound, relative to the body weight of ob/ob mice without administration of the NQO1-activating candidate compound (control) after four weeks.

[2] = body weight and dietary intake of leptin receptor-deficient (ob/ob) mice; assay type: in vivo, mouse; details: for Weight reduction In ob/ob mice (4 wk): after four weeks, relative to ob/ob mice without administration (control), method of Example 23
Experimental: All experimental animal procedures were performed according to a guideline of Institutional Animal Care and Use Committee, Chungnam National University School of Medicine. OLETF rats were purchased from Otsuka Research Institute. Male ob/ob and C57BL/6 mice were purchased from Jackson Laboratory. Animals were housed in a breeding room maintained at a constant temperature of […] and a 12 h/12 h light/dark (L/D) cycle. 4-week-old C57BL/6 male mice were fed ad libitum high fat diet (HFD, 24% (w/w) and 45% calories as fat, Research Diets Inc., New Brunswick, N.J. 08901, US) for 7 weeks. Mouse groups were divided into an untreated group, a vehicle-treated group (calcium silicate), a pair-fed group and a candidate compound-treated group (calcium silicate-coated […] nanoparticles). Body weight and dietary intake of animals were daily measured. Upon completion of experiments, some mice of each group were anesthetized and received MRI examinations. The remaining mice of the groups were anatomized and tissue weight thereof was measured. Epidydimal fat, liver, soleus muscle and extensor digitorum longus (EDL) were prepared, and immunohistochemical, oil-red 0 and pH-sensitive ATPase staining were performed for analysis.
FIGS. 46 and 47 show changes in dietary intake/body weight and changes in body weight for 56 days, according to daily administration of pyrano-1,2-naphthoquinone into leptin receptor-deficient (ob/ob) mice at a dose of 200 mg/kg via an oral route.
This Example was intended to examine effects of varying in vivo NAD(P)^+/NAD(P)H ratio by arbitrary external supply of NAD(P)^+, a method capable of elevating the NAD(P)^+/NAD(P)H ratio in vivo. 100 mg/kg of NAD^+ was administered daily to leptin receptor-deficient (ob/ob) mice via an intraperitoneal (i.p.) route. A control mice group was given i.p. administration of physiological saline at the same dose. Changes in dietary intake/body weight (A) and changes in body weight (B) were measured for 30 days.
200 mg/kg of DMF was daily administered to leptin receptor-deficient (ob/ob) mice via an oral route. A control group received daily i.p. administration of physiological saline at the same dose. Changes in body weight (A) and changes in dietary intake (B) were measured for 30 days. It was confirmed that dietary intake of the treatment group was regulated to a 60 to 70% level of the control group.
as §1, §2

[3] = system: AMPK; assay: AMPK phosphorylation in HEK293 cells (Western blot); assay type: cell-based, human; details: HEK293 cells, AICAR 2 mM, 30 min
Experimental: Cells were lysed in SDS sample buffer (62.5 mM Tris HCl (pH 6.8), 6% (w/v) SDS, 30% glycerol, 125 mM DTT, and 0.03% (w/v) bromophenol blue). The total cell lysates were boiled at a temperature of 100° C. for 5 min and electrophoresed on a sodium dodecyl sulfate-polyacrylamide gel, and proteins were transferred on a nitrocellulose membrane. The membrane was reacted in TBS (5% (w/v) milk and 0.1% Tween 20) for 1 hour, and then reacted with primary antibodies for 2 hours. Next, the membrane was developed using HRP-conjugated secondary antibodies (Phototope-HRP Western Blot Detection Kit, New England Biolabs, Beverly, Mass.).
In order to investigate the importance of an NQO1 protein in phosphorylation of AMP kinase, HepG2, MCF-7 and HEK293 cells were seeded onto 60 mm plates at a density of 1×10^6 cells/plate. After growing the cells for 24 hours, the culture medium was replaced with a serum-free medium, and cells were treated with pyrano-1,2-naphthoquinone (10 μM) for 30 min, respectively, in combination with a control group (DMSO). Cells were lysed in RIPA buffer and amounts of all proteins were quantified using a spectrophotometer, and 50 μg of the protein was subjected to electrophoresis. AMP kinase phosphorylation was examined using Anti-AMPK and Anti-pT172-AMPK, whereas the NQO1 protein was assayed using Anti-NQO1. From the fact that AMP kinase phosphorylation by pyran-1,2-naphthoquinone (10 μM) was not observed in HEK293 cells, it can be seen that the NQO1 protein is crucial for phosphorylation of AMP kinase.
In order to examine that an activity of NQO1 is important for the phosphorylation of AMP kinase, HEK293 cells were seeded onto a 6-well plate at a density of 1×10^5 cells/well, cultured for 24 hours, and transfected with pSG5-HA-NQO1 (500 ng) and pSG5-HA-NOQ1-C609T (500 ng) plasmids. After 24 hours, the culture medium was replaced with a serum-free medium, and the cells were treated with pyrano-1,2-naphthoquinone (10 μM) and AICAR (2 mM) for 30 min, in combination with a control (DMSO). AMP kinase phosphorylation were assayed using Anti-AMPK and Anti-pT172-AMPK, whereas transfected NQO1 was assayed using Anti-HA.
In addition, AMPK phosphorylation/activation was not promoted in HEK293 cells, except for HEK293 cells transfected with wild type NQO1.

[4] = system: HepG2 cells; assay: mitochondrial membrane potential (TMRE fluorescence) in HepG2 cells; assay type: cell-based, human; details: dicoumarol-treated cells
Experimental: For determination of the inner mitochondrial membrane potential (ΔΨm), 20 nM of TMRE (tetramethylrhodamine ethyl ester) as a fluorescent indicator was continuously applied to be loaded on cells. In order to monitor mitochondrial Ca^2+, cells on glass coverslips were loaded with 10 μM Rhod-2 AM via cold loading/warm incubation. In order to monitor cytosolic Ca^2+, cells were co-loaded with 10 μM Fluo-4 AM at 37′C for 30 min. The cells were washed twice with a KB solution, and mounted in a perfusion chamber. Fluorescent imaging was taken using a confocal laser scanning microscope (LSM-510 META, Carl Zeiss) at a magnification of ×200 and ×400, in conjunction with appropriate laser lines and a filter set. Image analysis was carried out using LSM-510 META software (Zeiss). Images for TMRE (red fluorescence), Rhod-2 (red fluorescence) and Fluo-4 (green fluorescence) were obtained using an inverted Zeiss 510META laser-scanning confocal microscope equipped with ×63 numerical aperture, 1.4 oil-immersion planapochromat lens. Green fluorescence and red fluorescence were illuminated with light of 488 nm and 543 nm. Incident light was passed through a 545 nm dichroic mirror and observed via a 500 to 530 nm band-pass (green) filter and a 560 nm long-pass (red) barrier filter.
However, such effects were not observed in HEK293 cells. […]

[5] = system: HepG2 cells; assay: calcium influx (Fluo-4) in HepG2 cells; assay type: cell-based, human; details: dicoumarol 5 μM pretreated 30 min
Experimental: Cells were grown on a coverslip in a culture medium for 24 hours, maintained in an RPMI 1640 serum-free medium for 1 hour, and pretreated with a calcium indicator Fluo-4 (5 μM) for 30 min. After pretreatment, the coverslip was mounted on a slide glass. Changes in an intracellular calcium concentration were observed using a fluorescence microscope (Carl Zeiss) for 30 sec, and cells were treated with a candidate compound (e.g. pyran-1,2-naphthoquinone) simultaneously with consecutive imaging of calcium changes using a fluorescence microscope (Carl Zeiss) for 2 sec. […] Changes in the intracellular calcium concentration were observed using a fluorescence microscope (Carl Zeiss) for 30 sec, and cells were treated with pyre-1,2-naphthoquinone (10 μM), followed by continuous shooting of calcium changes using a fluorescence microscope for 2 sec. Using an LSM Image Browser program (Carl Zeiss), 300 images taken for 10 min every 2 seconds were sorted and ordered in a time sequence and plotted on a graph.
For determination of the inner mitochondrial membrane potential (ΔΨm), 20 nM of TMRE (tetramethylrhodamine ethyl ester) as a fluorescent indicator was continuously applied to be loaded on cells. In order to monitor mitochondrial Ca^2+, cells on glass coverslips were loaded with 10 μM Rhod-2 AM via cold loading/warm incubation. In order to monitor cytosolic Ca^2+, cells were co-loaded with 10 μM Fluo-4 AM at 37′C for 30 min. […] Images for TMRE (red fluorescence), Rhod-2 (red fluorescence) and Fluo-4 (green fluorescence) were obtained using an inverted Zeiss 510META laser-scanning confocal microscope equipped with ×63 numerical aperture, 1.4 oil-immersion planapochromat lens. Green fluorescence and red fluorescence were illuminated with light of 488 nm and 543 nm. […]
Cells were cultured for 24 hours and then pre-treated with Fluo-4 for 30 min. Cells immobilized on a coverslip were transferred to a slide glass and treated with pyrano-1,2-naphthoquinone (10 μM), and at the same time images were taken every 2 seconds for 10 min using a fluorescence microscope.

Row | Structure (SMILES) | Residual amount of NAD(P)H(%) [1] | decrease of NAD(P)H and consequent body weight reduction [1] | Weight reduction In ob/ob mice (4 wk) [2] | other results
1 | CC1C2=C(OC1(C)C)c1ccccc1C(=O)C2=O (centres unmarked) [2,2,3-Trimethyl-2,3-dihydro-naphtho[1,2-b]furan-4,5-dione] | 52.75 ± 1.88% | significant decrease of NAD(P)H | −27.9 ± 0.5% | 
2 | CC1(C)CC2=C(O1)c1ccccc1C(=O)C2=O [2,2-Dimethyl-2,3-dihydro-naphtho[1,2-b]furan-4,5-dione] | 45.9 ± 3.90% | significant decrease of NAD(P)H | −27.8 ± 8.1% | 
3 | CC1(C)CCC2=C(O1)C(=O)c1ccccc1C2=O [2,2-Dmethyl-3,4-dihydro-2H-benzo[g]chromene-5,10-dione] | 95 ± 4.5% |  | 1.3 ± 2.8% | 
4 | CC1OC2=C(C(=O)C(=O)c3ccccc32)C1(C)C (centres unmarked) [2,3,3-Trimethyl-2,3-dihydro-naphtho[1,2-b]furan-4,5-dione] | 64.39 ± 1.69% | significant decrease of NAD(P)H | −46.2 ± 11.1% | 
5 | CC(C)=C/C(C)=C/C1(C)OC2=C(CC1C)C(=O)C(=O)c1ccccc12 (centres unmarked) [2-(2,4-Dimethyl-penta-1,3-dienyl)-2,3-dimethyl-3,4-dihydro-2H-benzo[h]chromene-5,6-dione] | 98.06 ± 5.14% |  | −2.2 ± 0.07% | 
6 | CC1CC2=C(O1)c1ccccc1C(=O)C2=O (centres unmarked) [2-Methyl-2,3-dihydro-naphtho[1,2-b]furan-4,5-dione] | 49.73 ± 1.98% | significant decrease of NAD(P)H | −39.5 ± 3.1% | 
7 | CC(C)=CC1(C)CCC2=C(O1)C(=O)c1ccccc1C2=O (centres unmarked) [2-Methyl-2-(2-methyl-propenyl)-3,4-dihydro-2H-benzo[g]Chromene-5,10-dione] | 99.74 ± 2.69% |  | −0.7 ± 2.0% | 
8 | CC(C)C1=CC2OC3=C(CC2(C)CC1)C(=O)c1ccccc1C3=O (centres unmarked) [3-Isoprophy-12a-methyl-2,4a,12,12a-tetradro-7H-benzo[b]xanthene-6,11-dione] | 99.45 ± 3.56% |  | 0.3 ± 2.8% | 
9 | CC(C)C1=CC2OC3=C(CC2(C)CC1)C(=O)C(=O)c1ccccc13 (centres unmarked) [10-Isopropyl-7a-methyl-7a,8,9,11a-tetrahydro-7H-benzo[c]xanthene-5,6-dione] | 77.55 ± 4.19% | significant decrease of NAD(P)H | −6.7 ± 2.1% | 
10 | NC(=O)c1ncn([C@@H]2O[C@H](CO)[C@@H](O)[C@H]2O)c1N [AICAR, 5-aminoimidazole-4-carboxamide-1-beta-D-ribofuranoside, reference compound] |  |  |  | phosphorylation of AMPK [3]: increase in phosphorylation of AMPK
11 | COC1=C(OC)C(=O)C(C/C=C(\C)CC/C=C(\C)CC/C=C(\C)CC/C=C(\C)CC/C=C(\C)CC/C=C(\C)CC/C=C(\C)CC/C=C(\C)CC/C=C(\C)CCC=C(C)C)=C(C)C1=O [CoQ10, reference compound] | 101.69 ± 1.32% |  | 2.3 ± 3.5− % | 
12 | CC1=CC(=O)c2ccccc2C1=O [Menadione, 2-Methyl-1,4-naphthoquinone, reference compound] | 85.65 ± 2.58% |  | −2.7 ± 2.0% | 
13 | NC(=O)c1ccc[n+]([C@@H]2O[C@H](COP(=O)([O-])OP(=O)(O)OC[C@H]3O[C@@H](n4cnc5c(N)ncnc54)[C@H](O)[C@@H]3O)[C@@H](O)[C@H]2O)c1 [NAD^+] |  |  |  | body weight ([2]; NAD+ 100 mg/kg daily i.p., 30 days): continuous weight loss for 30 days; dietary intake/body weight ([2]; NAD+ 100 mg/kg daily i.p., at around 10 days): notably decreased
14 | O=c1oc2ccccc2c(O)c1Cc1c(O)c2ccccc2oc1=O [dicoumarol, reference compound] |  |  |  | effects of βL on ΔΨm in dicoumarol-treated cells [4]: did not exhibit such effects; effect on calcium influx by pyrano-1,2-naphthoquinone [5]: inhibited
